# Results: patent US20210330611A1, “THERAPY FOR NEUROLOGICAL DISEASES/DISORDERS” (priority 2020, published 2021)
# Where two headings read alike, the source gives them in different places.
# Legend:
# [1] = system: fibrin-induced microglia activation; assay: Image-based assay of fibrin-induced microglia activation (HTS and dose response); assay type: cell-based, rat; details: primary microglia HTS, fibrin stimulation, cell size >800 μm2 as marker of activation; for inhibition at 10 µM: Rattus norvegicus, Microglia, read-out: Fibrin % inhibition
# [2] = system: LPS-induced microglia activation; assay: Image-based assay of LPS-induced microglia activation (HTS and dose response); assay type: cell-based, rat; details: for inhibition at 10 µM: Rattus norvegicus, Microglia, 48 h, read-out: LPS % inhibition
# [3] = system: fibrin- and LPS-induced microglia activation; assay: cells; assay type: cell-based, rat; details: classification by fibrin and LPS inhibition in HTS
# [4] = system: primary rat microglia
# [5] = system: primary rat microglia; assay: Cell toxicity (dead cells, size <150 μm2) in coated fibrin (cFib) assay; details: primary microglia HTS, fibrin stimulation, cell size <150 μm2 as marker of toxicity;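 note: share of dead cells sized under 150 µm2 at 10 µM in fibrin-stimulated microglia HTS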
structure (smiles),measurement,setting,value
COc1ccc2nc3cc(Cl)ccc3c(Nc3cc(CN4CCCC4)c(O)c(CN4CCCC4)c3)c2n1.O=P(O)(O)O.O=P(O)(O)O.O=P(O)(O)O.O=P(O)(O)O [Pyronaridine Tetraphosphate],Fibrin % inhibition,[1],16%
same,LPS % inhibition,[2],9%
same,Quadrant (FIG. 5b),[3],Q4
same,LPS % cell toxicity,[4],0%
same,Fibrin % cell toxicity,[5],1%
CCOC(=O)[C@H](CCc1ccccc1)N[C@@H](C)C(=O)N1Cc2ccccc2C[C@H]1C(=O)O [Quinapril],inhibition at 10 µM,[1],-24%
same,inhibition at 10 µM,[2],13%
same,Quadrant (FIG. 5b),[3],Q4
same,LPS % cell toxicity,[4]; rat,0%
same,Fibrin % cell toxicity,[5],1%
C[C@H](N[C@@H](CCc1ccccc1)C(=O)O)C(=O)N1Cc2ccccc2C[C@H]1C(=O)O [Quinaprilat],inhibition at 10 µM,[1],-5%
same,inhibition at 10 µM,[2],5%
same,Quadrant (FIG. 5b),[3],Q4
same,LPS % cell toxicity,[4]; rat,0%
same,Fibrin % cell toxicity,[5],1%
C#C[C@]1(O)CC[C@H]2[C@@H]3CCc4cc(OC5CCCC5)ccc4[C@H]3CC[C@@]21C [Quinestrol],inhibition at 10 µM,[1],15%
same,inhibition at 10 µM,[2],24%
same,Quadrant (FIG. 5b),[3],Q4
same,LPS % cell toxicity,[4]; rat,0%
same,Fibrin % cell toxicity,[5],0%
C=C[C@H]1CN2CC[C@H]1C[C@H]2[C@H](OC(=O)OCC)c1ccnc2ccc(OC)cc12 [Quinine Ethyl Carbonate],inhibition at 10 µM,[1],-21%
same,inhibition at 10 µM,[2],-11%
same,Quadrant (FIG. 5b),[3],Q4
same,LPS % cell toxicity,[4]; rat,0%
same,Fibrin % cell toxicity,[5],0%
"O=C(O)/C=C\C(=O)O.O=C(O)/C=C\C(=O)O.c1ccc2nc(N3CCNCC3)ccc2c1 [Quipazine Dimaleate, Quipazine Maleate]",Fibrin % inhibition,[1],−18%
same,LPS % inhibition,[2],9%
same,Quadrant (FIG. 5b),[3],Q4
same,LPS % cell toxicity,[4],0%
same,Fibrin % cell toxicity,[5],1%
COCCCOc1ccnc(C[S+]([O-])c2nc3ccccc3[nH]2)c1C (stereo not drawn) [Rabeprazole],inhibition at 10 µM,[1],-46%
same,inhibition at 10 µM,[2],3%
same,Quadrant (FIG. 5b),[3],Q4
same,LPS % cell toxicity,[4]; rat,0%
same,Fibrin % cell toxicity,[5],0%
CC(=O)SCC(Cc1ccccc1)C(=O)NCC(=O)OCc1ccccc1 (stereo not drawn) [Racecadotril],inhibition at 10 µM,[1],-51%
same,inhibition at 10 µM,[2],18%
same,Quadrant (FIG. 5b),[3],Q4
same,LPS % cell toxicity,[4]; rat,0%
same,Fibrin % cell toxicity,[5],1%
CCC(=O)NCC[C@@H]1CCc2ccc3c(c21)CCO3 [Ramelteon],inhibition at 10 µM,[1],25%
same,inhibition at 10 µM,[2],20%
same,Quadrant (FIG. 5b),[3],Q4
same,LPS % cell toxicity,[4]; rat,0%
same,Fibrin % cell toxicity,[5],0%
Cc1c(NC(C)C)c(=O)n(-c2ccccc2)n1C [Ramifenazone],inhibition at 10 µM,[1],-11%
same,inhibition at 10 µM,[2],9%
same,Quadrant (FIG. 5b),[3],Q4
same,LPS % cell toxicity,[4]; rat,0%
same,Fibrin % cell toxicity,[5],0%
CCOC(=O)[C@H](CCc1ccccc1)N[C@@H](C)C(=O)N1[C@H](C(=O)O)C[C@@H]2CCC[C@@H]21 [Ramipril],inhibition at 10 µM,[1],8%
same,inhibition at 10 µM,[2],16%
same,Quadrant (FIG. 5b),[3],Q4
same,LPS % cell toxicity,[4]; rat,0%
same,Fibrin % cell toxicity,[5],0%
CNC(=C[N+](=O)[O-])NCCSCc1ccc(CN(C)C)o1 [Ranitidine],inhibition at 10 µM,[1],35%
same,inhibition at 10 µM,[2],15%
same,Quadrant (FIG. 5b),[3],Q4
same,LPS % cell toxicity,[4]; rat,0%
same,Fibrin % cell toxicity,[5],1%
